Assay results as given in ChEMBL document CHEMBL6078645, “Expanding the Solvent/Protein Region Occupation of the Non-Nucleoside Reverse Transcriptase Inhibitor Binding Pocket for Improved Broad-Spectrum Anti-HIV-1 Efficacy: from Rigid Phenyl-Diarylpyrimidines to Flexible Hydrophilic Piperidine-Diarylpyrimidines” (J Med Chem, 2024).
Values joined by “and” are separate entries in the source; they are usually repeats but may differ in a detail not shown here. Identical values can stand only once.

Key:
[1] = test system: Human immunodeficiency virus 1; experiment: Antiviral activity against HIV-1 harboring Y181C mutant infected in human MT4 cells assessed as protection against virus-induced cytopathic effect incubated for 5 days by MTT assay; format: functional, organism-based; conditions: Human immunodeficiency virus 1, MT4, 120 h
[2] = Cytotoxicity against human MT4 cells assessed as reduction in cell viability incubated for 5 days by MTT assay; format: toxicity, cell-based; conditions: MT4 cells, time 5 day
[3] = biological target: T1, Human immunodeficiency virus type 1 reverse transcriptase (Human immunodeficiency virus 1, UniProt Q72547); experiment: Inhibition of HIV-1 reverse transcriptase
[4] = test system: Human immunodeficiency virus 1; experiment: Antiviral activity against HIV-1 harboring F227L/V106A double mutant infected in human MT4 cells assessed as protection against virus-induced cytopathic effect incubated for 5 days by MTT assay; format: functional, organism-based; conditions: Human immunodeficiency virus 1, MT4, 120 h
[5] = test system: Human immunodeficiency virus 1; experiment: Antiviral activity against HIV-1 harboring L100I mutant infected in human MT4 cells assessed as protection against virus-induced cytopathic effect incubated for 5 days by MTT assay; format: functional, organism-based; conditions: Human immunodeficiency virus 1, MT4, 120 h
[6] = test system: Human immunodeficiency virus 1; experiment: Antiviral activity against HIV-1 harboring E138K mutant infected in human MT4 cells assessed as protection against virus-induced cytopathic effect incubated for 5 days by MTT assay; format: functional, organism-based; conditions: Human immunodeficiency virus 1, MT4, 120 h
[7] = Selectivity index, ratio of CC50 for cytotoxicity against human MT4 cells assessed as reduction in cell viability to EC50 for antiviral activity against wild type HIV-1 IIIB infected in human MT4 cells assessed as protection against virus-induced cytopathic effect; format: toxicity, cell-based; conditions: MT4 cells, read-out: Ratio CC50/EC50
[8] = biological target: T1, Human immunodeficiency virus type 1 reverse transcriptase; experiment: Inhibition of wildtype recombinant HIV-1 Reverse transcriptase incubated for 40 mins by spectrofluorometric analysis
[9] = test system: Human immunodeficiency virus 1; experiment: Antiviral activity against HIV-1 harboring Y188L mutant infected in human MT4 cells assessed as protection against virus-induced cytopathic effect incubated for 5 days by MTT assay; format: functional, organism-based; conditions: Human immunodeficiency virus 1, MT4, 120 h
[10] = test system: Human immunodeficiency virus 1; experiment: Antiviral activity against HIV-1 harboring RES056 mutant infected in human MT4 cells assessed as protection against virus-induced cytopathic effect incubated for 5 days by MTT assay; format: functional, organism-based; conditions: Human immunodeficiency virus 1, MT4, 120 h
[11] = test system: Human immunodeficiency virus 1; experiment: Antiviral activity against HIV-1 harboring K103N mutant infected in human MT4 cells assessed as protection against virus-induced cytopathic effect incubated for 5 days by MTT assay; format: functional, organism-based; conditions: Human immunodeficiency virus 1, MT4, 120 h
[12] = test system: Human immunodeficiency virus 1; experiment: Antiviral activity against wild type HIV-1 IIIB infected in human MT4 cells assessed as protection against virus-induced cytopathic effect incubated for 5 days by MTT assay; format: functional, organism-based; conditions: Human immunodeficiency virus 1, IIIB, MT4, 120 h

Row | Structure (SMILES) | EC50 [1] | CC50 at 120 h [2] | EC50 [3] | EC50 [4] | EC50 [5] | EC50 [6] | selectivity ratio [7] | IC50 [8] | EC50 [9] | EC50 [10] | EC50 [11] | EC50 [12]
1 | Cc1cc(-c2ccc(C#N)cc2)cc(C)c1Oc1nc(NC2CCN(Cc3ccc(C#N)cc3)CC2)ncc1CO | 0.022 µM | 4.83 µM | 0.007 µM | 0.071 µM | 0.009 µM | 0.021 µM | 684 | 0.297 µM | 0.059 µM | 0.294 µM | 0.006 µM | 
2 | CNS(=O)(=O)c1ccc(CN2CCC(Nc3ncc(CO)c(Oc4c(C)cc(-c5ccc(C#N)cc5)cc4C)n3)CC2)cc1 | 0.019 µM | 6.68 µM | 0.006 µM | 0.052 µM | 0.008 µM | 0.03 µM | 1190 | 0.497 µM | 0.031 µM | 0.066 µM | 0.01 µM | 
3 | Cc1cc(-c2ccc(C#N)cc2)cc(C)c1Oc1nc(NC2CCN(Cc3cccc([N+](=O)[O-])c3)CC2)ncc1CO |  | 7.36 µM | 0.009 µM | 0.291 µM |  |  | 819 | 0.184 µM | 0.167 µM | 0.646 µM |  | 
4 | Cc1cc(-c2ccc(C#N)cc2)cc(C)c1Oc1nc(NC2CCN(Cc3ccc(C(=O)NCCCO)cc3)CC2)ncc1CO | 0.029 µM | 17.3 µM | 0.007 µM | 0.055 µM | 0.01 µM | 0.026 µM | 2630 | 0.463 µM | 0.114 µM | 0.272 µM | 0.007 µM | 
5 | CNC(=O)c1cccc(CN2CCC(Nc3ncc(CO)c(Oc4c(C)cc(-c5ccc(C#N)cc5)cc4C)n3)CC2)c1 |  | 20.2 µM | 0.04 µM | 5 µM |  |  | 506 | 0.305 µM | 0.813 µM | 5.63 µM |  | 
6 | Cc1cc(-c2ccc(C#N)cc2)cc(C)c1Oc1nc(NC2CCN(Cc3ccc(S(C)(=O)=O)cc3)CC2)ncc1CO | 0.019 µM | 9.17 µM | 0.008 µM | 0.052 µM | 0.008 µM | 0.036 µM | 1190 | 0.27 µM | 0.058 µM | 0.163 µM | 0.018 µM | 
7 | Cc1cc(-c2ccc(C#N)cc2)cc(C)c1Oc1nc(NC2CCN(Cc3ccccc3C#N)CC2)ncc1CO |  | 5.14 µM | 0.008 µM | 0.239 µM |  |  | 628 | 0.226 µM | 0.2 µM | 0.409 µM |  | 
8 | Cc1cc(-c2ccncc2)cc(C)c1Oc1nc(NC2CCN(Cc3ccc(C(=O)NCCCO)cc3)CC2)ncc1CO |  |  |  |  |  |  |  | 0.355 µM |  |  |  | 
9 | Cc1cc(-c2ccc(C#N)cc2)cc(C)c1Oc1nc(NC2CCN(Cc3ccc(F)cc3)CC2)ncc1CO |  | 5.68 µM | 0.009 µM | 0.558 µM |  |  | 629 |  | 0.283 µM | 0.935 µM |  | 
10 | COC(=O)/C=C/c1ccc(CN2CCC(Nc3ncc(CO)c(Oc4c(C)cc(-c5ccc(C#N)cc5)cc4C)n3)CC2)cc1 |  | 88.3 µM | 0.007 µM | 0.329 µM |  |  | 13400 | 0.437 µM | 0.213 µM | 0.357 µM |  | 
11 | COCCNS(=O)(=O)c1ccc(CN2CCC(Nc3ncc(CO)c(Oc4c(C)cc(-c5ccc(C#N)cc5)cc4C)n3)CC2)cc1 | 0.034 µM | 6.71 µM | 0.006 µM | 0.034 µM | 0.006 µM | 0.04 µM | 1030 | 0.575 µM | 0.047 µM | 0.045 µM | 0.007 µM | 
12 | COC(=O)c1ccc(CN2CCC(Nc3ncc(CO)c(Oc4c(C)cc(-c5ccc(C#N)cc5)cc4C)n3)CC2)cc1 |  | 13.9 µM | 0.012 µM | 0.175 µM |  |  | 1120 | 0.377 µM | 0.175 µM | 0.469 µM |  | 
13 | Cc1cc(-c2ccc(C#N)cc2)cc(C)c1Oc1nc(NC2CCN(Cc3ccc([N+](=O)[O-])cc3)CC2)ncc1CO |  | 3.23 µM | 0.008 µM | 0.54 µM |  |  | 381 | 0.202 µM | 0.189 µM | 0.306 µM |  | 
14 | Cc1cc(-c2ccc(C#N)cc2)cc(C)c1Oc1nc(NC2CCN(Cc3ccc(C(N)=O)cc3)CC2)ncc1CO |  | 21.8 µM | 0.007 µM | 0.26 µM |  |  | 3200 | 0.265 µM | 0.156 µM | 0.304 µM |  | 
15 | Cc1cc(-c2ccc(C#N)cc2)cc(C)c1Oc1nc(NC2CCN(Cc3ccc(S(=O)(=O)NCCCO)cc3)CC2)ncc1CO |  | 6.32 µM | 0.026 µM | 0.114 µM |  |  | 247 | 0.543 µM | 0.24 µM | 0.268 µM |  | 
16 | Cc1cc(-c2ccc(C#N)cc2)cc(C)c1Oc1nc(NC2CCN(Cc3ccc(S(=O)(=O)NCCO)cc3)CC2)ncc1CO |  | 15.5 µM | 0.01 µM | 0.069 µM |  |  | 1630 | 0.413 µM | 0.228 µM | 0.327 µM |  | 
17 | Cc1ccc(CN2CCC(Nc3ncc(CO)c(Oc4c(C)cc(-c5ccc(C#N)cc5)cc4C)n3)CC2)cc1 |  | 3.66 µM | 0.013 µM | 0.81 µM |  |  | 285 | 0.626 µM | 0.237 µM | 1.12 µM |  | 
18 | Cc1cc(-c2ccc(C#N)cc2)cc(C)c1Oc1nc(NC2CCN(Cc3ccc(C(F)(F)F)cc3)CC2)ncc1CO |  | 5.05 µM | 0.04 µM | 1.59 µM |  |  | 127 |  | 0.701 µM | 2.6 µM |  | 
19 | Cc1cc(-c2ccc(C#N)cc2)cc(C)c1Oc1nc(NC2CCN(Cc3cccc(C(N)=O)c3)CC2)ncc1CO |  | 18.4 µM | 0.008 µM | 0.271 µM |  |  | 2230 | 0.201 µM | 0.255 µM | 1.21 µM |  | 
20 | Cc1cc(-c2ccc(C#N)cc2)cc(C)c1Oc1nc(NC2CCN(Cc3ccc(C(=O)NCCO)cc3)CC2)ncc1CO |  | 16.3 µM | 0.014 µM |  |  |  | 1140 |  |  |  |  | 
21 | COCCNC(=O)c1ccc(CN2CCC(Nc3ncc(CO)c(Oc4c(C)cc(-c5ccc(C#N)cc5)cc4C)n3)CC2)cc1 | 0.023 µM | 17.6 µM | 0.009 µM | 0.042 µM | 0.006 µM | 0.019 µM | 1860 | 0.509 µM | 0.049 µM | 0.044 µM | 0.007 µM | 
22 | Cc1cc(-c2ccncc2)cc(C)c1Oc1nc(NC2CCN(Cc3ccc(S(=O)(=O)N4CCC(O)CC4)cc3)CC2)ncc1CO |  | 17.7 µM |  | 0.043 µM |  |  | 750 |  | 0.226 µM | 0.446 µM |  | 0.024 µM
23 | Cc1cc(-c2ccc(C#N)cc2)cc(C)c1Oc1nc(NC2CCN(Cc3ccc(CO)cc3)CC2)ncc1CO |  | 18.4 µM |  | 0.051 µM |  |  | 1980 |  | 0.056 µM | 0.307 µM |  | 0.009 µM
24 | CNC(=O)c1ccc(CN2CCC(Nc3ncc(CO)c(Oc4c(C)cc(-c5ccc(C#N)cc5)cc4C)n3)CC2)cc1 |  | 28.1 µM | 0.023 µM | 1.39 µM |  |  | 1250 | 0.438 µM | 0.551 µM | 4.69 µM |  | 
25 | Cc1cc(-c2ccc(C#N)cc2)cc(C)c1Oc1nc(NC2CCN(Cc3cccc(C#N)c3)CC2)ncc1CO | 0.018 µM | 5.81 µM | 0.008 µM | 0.122 µM | 0.012 µM | 0.055 µM | 711 | 0.261 µM | 0.051 µM | 0.99 µM | 0.016 µM | 
26 | Cc1cc(-c2ccc(C#N)cc2)cc(C)c1Oc1nc(NC2CCN(Cc3ccc(OC(F)(F)F)cc3)CC2)ncc1CO |  | 5.96 µM | 0.043 µM | 1.08 µM |  |  | 140 | 0.375 µM and 0.249 µM | 0.479 µM | 1.26 µM |  | 
27 | O=C1Nc2ccc(Cl)cc2[C@@](C#CC2CC2)(C(F)(F)F)O1 [EFAVIRENZ] | 0.008 µM | > 6.35 µM |  |  | 0.055 µM | 0.01 µM |  |  |  | 0.579 µM |  | 
28 | Cc1ccnc2c1NC(=O)c1cccnc1N2C1CC1 [NEVIRAPINE] | 6.92 µM | > 15.3 µM |  | 6.46 µM | 1360 µM |  |  |  | 9.31 µM | > 15.3 µM | 2.18 µM | 
29 | Cc1cc(/C=C/C#N)cc(C)c1Nc1ccnc(Nc2ccc(C#N)cc2)n1 [RILPIVIRINE] |  |  | 0.001 µM |  | 0.002 µM |  |  |  |  |  |  | 
30 | Cc1cn([C@H]2C[C@H](N=[N+]=[N-])[C@@H](CO)O2)c(=O)[nH]c1=O [ZIDOVUDINE] | 0.022 µM | > 7.49 µM | 0.027 µM | 0.017 µM |  | 0.032 µM | > 281 |  | 0.015 µM | 0.034 µM | 0.029 µM | 
